Measured values as given in ChEMBL document CHEMBL4308841, “Synthesis, in vitro antiproliferative activity, and kinase inhibitory effects of pyrazole-containing diarylureas and diarylamides” (Eur J Med Chem, 2018).

Columns and labels:
SK-MEL-28 = test: Growth inhibition of human SK-MEL-28 cells assessed as cell growth at 0.1 uM incubated for 48 hrs by sulforhodamine B assay relative to control; format: functional; conditions: SK-MEL-28, 48 h, read-out: Activity
CAKI-1 [1] = test: Growth inhibition of human Caki1 cells assessed as cell growth at 100 uM incubated for 48 hrs by sulforhodamine B assay relative to control; format: functional; conditions: CAKI-1, 48 h, read-out: Activity
HCT-15 = test: Growth inhibition of human HCT15 cells assessed as cell growth at 0.01 uM incubated for 48 hrs by sulforhodamine B assay relative to control; format: functional; conditions: HCT-15, 48 h, read-out: Activity
SK-OV-3 = test: Growth inhibition of human SKOV3 cells assessed as cell growth at 0.01 uM incubated for 48 hrs by sulforhodamine B assay relative to control; format: functional; conditions: SK-OV-3, 48 h, read-out: Activity
COLO 205 = test: Growth inhibition of human COLO205 cells assessed as cell growth at 100 uM incubated for 48 hrs by sulforhodamine B assay relative to control; format: functional; conditions: COLO 205, 48 h, read-out: Activity
SW-620 = test: Growth inhibition of human SW620 cells incubated for 48 hrs by sulforhodamine B assay; format: functional, cell-based; conditions: SW-620, 48 h
SR [2] = test: Growth inhibition of human SR cells assessed as cell growth at 0.1 uM incubated for 48 hrs by sulforhodamine B assay relative to control; format: functional; conditions: read-out: Activity
NCI-H23 [3] = test: Growth inhibition of human NCI-H23 cells assessed as cell growth at 0.01 uM incubated for 48 hrs by sulforhodamine B assay relative to control; format: functional; conditions: NCI-H23, 48 h, read-out: Activity
NCI-H322M [4] = test: Growth inhibition of human NCI-H322M cells assessed as cell growth at 0.01 uM incubated for 48 hrs by sulforhodamine B assay relative to control; format: functional; conditions: read-out: Activity
A549 = test: Growth inhibition of human A549/ATCC cells assessed as cell growth at 0.01 uM incubated for 48 hrs by sulforhodamine B assay relative to control; format: functional; conditions: A549, 48 h, read-out: Activity
MCF7 = test: Growth inhibition of human MCF7 cells incubated for 48 hrs by sulforhodamine B assay; format: functional, cell-based; conditions: MCF7, 48 h
RXF 393 = test: Growth inhibition of human RXF393 cells assessed as cell growth at 100 uM incubated for 48 hrs by sulforhodamine B assay relative to control; format: functional; conditions: RXF 393, 48 h, read-out: Activity
CCRF-CEM = test: Growth inhibition of human CCRF-CEM cells assessed as cell growth at 0.1 uM incubated for 48 hrs by sulforhodamine B assay relative to control; format: functional; conditions: read-out: Activity
NCI-H322M [5] = test: Growth inhibition of human NCI-H322M cells assessed as cell growth at 0.1 uM incubated for 48 hrs by sulforhodamine B assay relative to control; format: functional; conditions: read-out: Activity
SF-295 = test: Growth inhibition of human SF295 cells assessed as cell growth at 0.01 uM incubated for 48 hrs by sulforhodamine B assay relative to control; format: functional; conditions: SF-295, 48 h, read-out: Activity
MDA-MB-468 = test: Growth inhibition of human MDA-MB-468 cells assessed as cell growth at 0.1 uM incubated for 48 hrs by sulforhodamine B assay relative to control; format: functional; conditions: MDA-MB-468, 48 h, read-out: Activity
T47D = test: Growth inhibition of human T47D cells assessed as cell growth at 100 uM incubated for 48 hrs by sulforhodamine B assay relative to control; format: functional; conditions: read-out: Activity
786-0 = test: Growth inhibition of human 786-0 cells assessed as cell growth at 1 uM incubated for 48 hrs by sulforhodamine B assay relative to control; format: functional; conditions: 786-0, 48 h, read-out: Activity
HL-60(TB) = test: Growth inhibition of human HL-60(TB) cells incubated for 48 hrs by sulforhodamine B assay; format: functional, cell-based; conditions: HL-60, 48 h
UACC-257 = test: Growth inhibition of human UACC257 cells assessed as cell growth at 0.01 uM incubated for 48 hrs by sulforhodamine B assay relative to control; format: functional; conditions: UACC-257, 48 h, read-out: Activity
SNB-75 [6] = test: Growth inhibition of human SNB75 cells incubated for 48 hrs by sulforhodamine B assay; format: functional, cell-based; conditions: SNB-75, 48 h
SNB-19 = test: Growth inhibition of human SNB19 cells assessed as cell growth at 1 uM incubated for 48 hrs by sulforhodamine B assay relative to control; format: functional; conditions: SNB-19, 48 h, read-out: Activity
MDA-MB-231 = test: Growth inhibition of human MDA-MB-231 cells assessed as cell growth at 0.01 uM incubated for 48 hrs by sulforhodamine B assay relative to control; format: functional; conditions: MDA-MB-231, 48 h, read-out: Activity
IGROV-1 = test: Growth inhibition of human IGROV1 cells incubated for 48 hrs by sulforhodamine B assay; format: functional, cell-based; conditions: IGROV-1, 48 h
UO-31 = test: Growth inhibition of human UO31 cells assessed as cell growth at 1 uM incubated for 48 hrs by sulforhodamine B assay relative to control; format: functional; conditions: UO-31, 48 h, read-out: Activity
SR [7] = test: Growth inhibition of human SR cells assessed as cell growth at 1 uM incubated for 48 hrs by sulforhodamine B assay relative to control; format: functional; conditions: read-out: Activity
NCI-H23 [8] = test: Growth inhibition of human NCI-H23 cells assessed as cell growth at 100 uM incubated for 48 hrs by sulforhodamine B assay relative to control; format: functional; conditions: NCI-H23, 48 h, read-out: Activity
HCC 2998 = test: Growth inhibition of human HCC2998 cells assessed as cell growth at 0.1 uM incubated for 48 hrs by sulforhodamine B assay relative to control; format: functional; conditions: HCC 2998, 48 h, read-out: Activity
CAKI-1 [9] = test: Growth inhibition of human Caki1 cells assessed as cell growth at 0.01 uM incubated for 48 hrs by sulforhodamine B assay relative to control; format: functional; conditions: CAKI-1, 48 h, read-out: Activity
SNB-75 [10] = test: Growth inhibition of human SNB75 cells assessed as cell growth at 0.01 uM incubated for 48 hrs by sulforhodamine B assay relative to control; format: functional; conditions: SNB-75, 48 h, read-out: Activity
[11] = read-out: LC50 (the source's name)
[12] = read-out: pLC50 (the source's name) (converted)

COc1cc(Cl)cc(-c2nn(-c3cccc(NC(=O)Nc4ccc(Cl)c(Cl)c4)c3)cc2-c2ccncc2)c1
growth at 0.1 µM (SK-MEL-28): 103% | growth at 100 µM (CAKI-1 [1]): -8% | growth at 0.01 µM (HCT-15): 93% | growth at 0.01 µM (SK-OV-3): 100% | growth at 100 µM (COLO 205): -100% | GI50 (SW-620; read-out: GI50): 3.43 µM | LC50 (SW-620; read-out: LC50): > 100 µM | TGI (SW-620; read-out: TGI): > 100 µM | GI50 (SW-620; read-out: pGI50 (converted)): 3.39 µM | LC50 (SW-620; read-out: pLC50 (converted)): > 100 µM | TGI (SW-620; read-out: pTGI (converted)): > 100 µM | growth at 0.1 µM (SR [2]): 51% | growth at 0.01 µM (NCI-H23 [3]): 93% | growth at 0.01 µM (NCI-H322M [4]): 101% | growth at 0.01 µM (A549): 99% | GI50 (MCF7; read-out: GI50): 2.56 µM | LC50 (MCF7; read-out: LC50): > 100 µM | TGI (MCF7; read-out: TGI): 13.2 µM | GI50 (MCF7; read-out: pGI50 (converted)): 2.57 µM | LC50 (MCF7; read-out: pLC50 (converted)): > 100 µM | TGI (MCF7; read-out: pTGI (converted)): 13.2 µM | growth at 100 µM (RXF 393): -43% | growth at 0.1 µM (CCRF-CEM): 97% | growth at 0.1 µM (NCI-H322M [5]): 90% | growth at 0.01 µM (SF-295): 87% | growth at 0.1 µM (MDA-MB-468): 97% | growth at 100 µM (T47D): -9% | growth at 1 µM (786-0): 84% | GI50 (HL-60(TB); read-out: GI50): 2.19 µM | LC50 (HL-60(TB); read-out: LC50): > 100 µM | TGI (HL-60(TB); read-out: TGI): 55.8 µM | GI50 (HL-60(TB); read-out: pGI50 (converted)): 2.19 µM | LC50 (HL-60(TB); read-out: pLC50 (converted)): > 100 µM | TGI (HL-60(TB); read-out: pTGI (converted)): 5.62 µM | growth at 0.01 µM (UACC-257): 96% | GI50 (SNB-75 [6]; read-out: GI50): 2.11 µM | CC50 (SNB-75 [6]; [11]): > 100 µM | TGI (SNB-75 [6]; read-out: TGI): 45.6 µM | GI50 (SNB-75 [6]; read-out: pGI50 (converted)): 2.14 µM | CC50 (SNB-75 [6]; [12]): > 100 µM | TGI (SNB-75 [6]; read-out: pTGI (converted)): 49 µM | growth at 1 µM (SNB-19): 89% | growth at 0.01 µM (MDA-MB-231): 109% | GI50 (IGROV-1; read-out: GI50): 4.36 µM | CC50 (IGROV-1; [11]): > 100 µM | TGI (IGROV-1; read-out: TGI): > 100 µM | GI50 (IGROV-1; read-out: pGI50 (converted)): 4.37 µM | CC50 (IGROV-1; [12]): > 100 µM | TGI (IGROV-1; read-out: pTGI (converted)): > 100 µM | growth at 1 µM (UO-31): 88% | growth at 1 µM (SR [7]): 68% | growth at 100 µM (NCI-H23 [8]): -20% | growth at 0.1 µM (HCC 2998): 96% | growth at 0.01 µM (CAKI-1 [9]): 96% | growth at 0.01 µM (SNB-75 [10]): 88%

O=C(Nc1cccc(-n2cc(-c3ccncc3)c(-c3cc(O)cc(Cl)c3)n2)c1)c1ccc(N2CCOCC2)c(C(F)(F)F)c1
growth at 0.1 µM (SK-MEL-28): 94% | growth at 100 µM (CAKI-1 [1]): -32% | growth at 0.01 µM (HCT-15): 91% | growth at 0.01 µM (SK-OV-3): 102% | growth at 100 µM (COLO 205): -17% | GI50 (SW-620; read-out: GI50): 2.53 µM | LC50 (SW-620; read-out: LC50): > 100 µM | TGI (SW-620; read-out: TGI): 70.6 µM | GI50 (SW-620; read-out: pGI50 (converted)): 2.82 µM | LC50 (SW-620; read-out: pLC50 (converted)): > 100 µM | TGI (SW-620; read-out: pTGI (converted)): 7.08 µM | growth at 0.1 µM (SR [2]): 98% | growth at 0.01 µM (NCI-H23 [3]): 105% | growth at 0.01 µM (NCI-H322M [4]): 56% | growth at 0.01 µM (A549): 103% | GI50 (MCF7; read-out: GI50): 4.18 µM | LC50 (MCF7; read-out: LC50): > 100 µM | TGI (MCF7; read-out: TGI): > 100 µM | GI50 (MCF7; read-out: pGI50 (converted)): 4.17 µM | LC50 (MCF7; read-out: pLC50 (converted)): > 100 µM | TGI (MCF7; read-out: pTGI (converted)): > 100 µM | growth at 100 µM (RXF 393): -39% | growth at 0.1 µM (CCRF-CEM): 95% | growth at 0.1 µM (NCI-H322M [5]): 97% | growth at 0.01 µM (SF-295): 97% | growth at 0.1 µM (MDA-MB-468): 54% | growth at 100 µM (T47D): 7% | growth at 1 µM (786-0): 77% | GI50 (HL-60(TB); read-out: GI50): 0.81 µM | LC50 (HL-60(TB); read-out: LC50): > 100 µM | TGI (HL-60(TB); read-out: TGI): 30.4 µM | GI50 (HL-60(TB); read-out: pGI50 (converted)): 0.813 µM | LC50 (HL-60(TB); read-out: pLC50 (converted)): > 100 µM | TGI (HL-60(TB); read-out: pTGI (converted)): 3.02 µM | growth at 0.01 µM (UACC-257): 91% | GI50 (SNB-75 [6]; read-out: GI50): 0.772 µM | CC50 (SNB-75 [6]; [11]): > 100 µM | TGI (SNB-75 [6]; read-out: TGI): > 100 µM | GI50 (SNB-75 [6]; read-out: pGI50 (converted)): 0.724 µM | CC50 (SNB-75 [6]; [12]): > 100 µM | TGI (SNB-75 [6]; read-out: pTGI (converted)): > 100 µM | growth at 1 µM (SNB-19): 90% | growth at 0.01 µM (MDA-MB-231): 100% | GI50 (IGROV-1; read-out: GI50): 5.12 µM | CC50 (IGROV-1; [11]): > 100 µM | TGI (IGROV-1; read-out: TGI): > 100 µM | GI50 (IGROV-1; read-out: pGI50 (converted)): 5.13 µM | CC50 (IGROV-1; [12]): > 100 µM | TGI (IGROV-1; read-out: pTGI (converted)): > 100 µM | growth at 1 µM (UO-31): 57% | growth at 1 µM (SR [7]): 9% | growth at 100 µM (NCI-H23 [8]): -12% | growth at 0.1 µM (HCC 2998): 100% | growth at 0.01 µM (CAKI-1 [9]): 98% | growth at 0.01 µM (SNB-75 [10]): 57%
